Laboratory results: patent publication US20240083885A1, “COMPOSITIONS AND METHODS FOR INHIBITING M PRO PROTEASE ACTIVITY AND FOR PREVENTING AND TREATING SARS-COV-2 INFECTION” (priority 2020, published 2024)
Like-named read-outs stand apart in the source and are kept apart here.

Experiments:
SARS-CoV-2 M^pro = SARS-CoV-2 M^pro (Severe acute respiratory syndrome coronavirus 2 (2019-nCoV) (SARS-CoV-2), UniProt P0DTD1); assay: biochemical
SARS-CoV-2 = assay: microbe, parasite or virus in culture; assay type: cell-based; details: for EC50: Severe acute respiratory syndrome coronavirus 2, Vero C1008
Vero E6 cells = assay: Cytotoxicity in Vero E6 cells (neutral red uptake); details: read-out: CC50 in Vero E6 cells
in vitro [1] = details: African green monkey
in vitro [2] = details: human, CC50 in Calu-3 cells
[3] = read-out: SARS-COV-2 main protease enzymatic inhibition IC50
[4] = Vero E6 cells, immunofluorescence assay, read-out: SARS-CoV-2 antiviral assay EC50
[5] = read-out: SARS-COV-2 antiviral activity using immunofluorescence assay EC50
[6] = read-out: antiviral EC50 against SARS-CoV-2 in Vero E6 cells
[7] = read-out: IC50 against SARS-CoV-2 M^pro

Work on C[C@H](NC(=O)C(c1cccnc1)N(C(=O)c1ccco1)c1ccc(N2CCCCC2)cc1)c1ccccc1 (some centres unmarked) [Jun8-97-1] yielded an IC50 (SARS-CoV-2 M^pro; [3]) of 5.46 µM.

O=C(NC1CCCCC1)C(c1cccnc1)N(C(=O)c1ccco1)c1ccc(-c2ccccc2)cc1 (centres unmarked) [Jun9-3-3] gave an IC50 (SARS-CoV-2 M^pro; [3]) of 2.68 µM.

O=C(NC1CCCC1)C(c1cccnc1)N(C(=O)c1c[nH]cn1)c1ccc(-c2ccccc2)cc1 (centres unmarked) [Jun9-3-5] showed an IC50 (SARS-CoV-2 M^pro; [3]) of 7.27 µM.

For O=C(NC1CCCCC1)C(c1cccnc1)N(C(=O)c1c[nH]cn1)c1ccc(-c2ccccc2)cc1 (centres unmarked) [Jun9-4-2], the IC50 (SARS-CoV-2 M^pro; [3]) was 5.82 µM.

In the case of C[C@H](NC(=O)C(c1cnccn1)N(C(=O)c1ccco1)c1ccc(-c2ccccc2)cc1)c1ccccc1 (some centres unmarked) [Jun9-4-4], the “Selectivity index SI CC50/EC50” value (SARS-CoV-2) is reported as over 243.9, the EC50 (SARS-CoV-2; [4]) is reported as 820 ± 560 nM and the EC50 (SARS-CoV-2; [5]) is reported as 1430 nM. The EC50 (SARS-CoV-2; [6]) was 820 to 4540 nM, the IC50 (SARS-CoV-2 M^pro; [7]) was 0.28 ± 0.07 µM and the CC50 (Vero E6 cells) was over 100 µM. For the same molecule, the CC50 at 5 days (in vitro [1]; Vero E6 Cytotoxicity CC50 (μM)) was over 200 µM.

In the case of C[C@H](NC(=O)C(c1cnccn1)N(C(=O)c1c[nH]cn1)c1ccc(-c2ccccc2)cc1)c1ccccc1 (some centres unmarked) [Jun9-5-2], the “Selectivity index SI CC50/EC50” value (SARS-CoV-2) is reported as 32.6, the EC50 (SARS-CoV-2; [4]) is reported as 4540 ± 690 nM and the EC50 (SARS-CoV-2; [5]) is reported as 9890 nM. For the same molecule, the EC50 (SARS-CoV-2; [6]) was 820 to 4540 nM, the IC50 (SARS-CoV-2 M^pro; [7]) was 0.67 ± 0.15 µM and the CC50 (Vero E6 cells) was over 100 µM. It also gave a CC50 at 5 days (in vitro [1]; Vero E6 Cytotoxicity CC50 (μM)) of 148 ± 13.9 µM.

Molecule O=C(NCC(c1ccccc1)c1ccccc1)C(c1cccnc1)N(C(=O)c1ccco1)c1ccc(-c2ccccc2)cc1 (centres unmarked) [Jun9-5-3] has an IC50 (SARS-CoV-2 M^pro; [3]) of 1.48 µM.

Work on C[C@H](NC(=O)C(c1cccnc1)N(C(=O)c1ccco1)c1ccc(OC(C)(C)C)cc1)c1ccccc1 (some centres unmarked) [Jun9-5-4] yielded an IC50 (SARS-CoV-2 M^pro; [3]) of 21.9 µM.

C[C@H](NC(=O)C(c1cccnc1)N(C(=O)c1ccco1)c1ccc(-c2ccccn2)cc1)c1ccccc1 (some centres unmarked) [Jun9-6-4] gave an IC50 (SARS-CoV-2 M^pro; [3]) of 1.81 µM.

For O=C(NCCCc1ccccc1)C(c1cccnc1)N(C(=O)c1ccco1)c1ccc(-c2ccccc2)cc1 (centres unmarked) [Jun9-12-2], the “Selectivity index SI CC50/EC50” value (SARS-CoV-2) was over 98.0, the EC50 (SARS-CoV-2; [4]) was 2040 ± 1080 nM and the EC50 (SARS-CoV-2; [5]) was 2130 nM. The EC50 (SARS-CoV-2; [6]) was 820 to 4540 nM, the IC50 (SARS-CoV-2 M^pro; [3]) was 1.06 µM and the CC50 (Vero E6 cells) was over 100 µM. The CC50 at 5 days (in vitro [1]; Vero E6 Cytotoxicity CC50 (μM)) was over 200 µM.

For CC(C)(C)NC(=O)C(c1cnccn1)N(C(=O)c1ccco1)c1ccc(C(C)(C)C)cc1 (centres unmarked) [Jun9-17-2], the IC50 (SARS-CoV-2 M^pro; [3]) was 4.93 µM.

O=C(NC1CCCC1)C(c1cccnc1)N(C(=O)CCl)c1ccc(-c2ccccc2)cc1 (centres unmarked) [Jun9-55-1, 2-(N-{[1,1′-biphenyl]-4-yl}-2-chloroacetamido)-N-cyclopentyl-2-(pyridin-3-yl)acetamide] gave a CC50 at 5 days (in vitro [2]) of under 2000 nM and a CC50 at 5 days (in vitro [1]; CC50 in Vero E6 cells) of under 11 µM.

C[C@H](NC(=O)[C@H](c1cccnc1)N(C(=O)C(Cl)Cl)c1ccc(-c2ccccc2)cc1)c1ccccc1 [Jun9-62-2S, N-([1,1′-biphenyl]-4-yl)-2,2-dichloro-N-((S)-2-oxo-2-(((S)-1-phenylethyl)amino)-1-(pyridin-3-yl)ethyl)acetamide] gave an IC50 (SARS-CoV-2 M^pro; IC50 against SARS-CoV-2 M^pro) of over 20 µM.

For CC(C)(C)c1ccc(N(C(=O)c2ccco2)C(C(=O)Nc2ccc(F)cc2)c2cccnc2)cc1 (centres unmarked) [Jun9-88-3], the IC50 (SARS-CoV-2 M^pro; [3]) was 7.81 µM.

Work on COc1ccc(NC(=O)C(c2cccnc2)N(C(=O)c2ccco2)c2ccc(C(C)(C)C)cc2)cc1 (centres unmarked) [Jun9-88-4] yielded an IC50 (SARS-CoV-2 M^pro; [3]) of 7.49 µM.

Molecule C[C@H](NC(=O)[C@H](c1cccnc1)N(C(=O)C(Br)(Br)Br)c1ccc(-c2ccccc2)cc1)c1ccccc1 [Jun9-88-6S, N-([1,1′-biphenyl]-4-yl)-2,2,2-tribromo-N-((S)-2-oxo-2-(((S)-1-phenylethyl)amino)-1-(pyridin-3-yl)ethyl)acetamide] has an IC50 (SARS-CoV-2 M^pro; [7]) of 7.16 µM and a CC50 at 5 days (in vitro [1]; CC50 in Vero E6 cells) of 5.99 µM.

With C[C@H](NC(=O)[C@H](c1cccnc1)N(C(=O)C(Br)Br)c1ccc(-c2ccccc2)cc1)c1ccccc1 [Jun9-89-2S, N-([1,1′-biphenyl]-4-yl)-2,2-dibromo-N-((S)-2-oxo-2-(((S)-1-phenylethyl)amino)-1-(pyridin-3-yl)ethyl)acetamide] the IC50 (SARS-CoV-2 M^pro; IC50 against SARS-CoV-2 M^pro) was 2.44 µM and the CC50 at 5 days (in vitro [1]; CC50 in Vero E6 cells) was 4.57 µM.

Molecule C[C@H](NC(=O)C(c1cccnc1)N(C(=O)C(Cl)(Cl)Br)c1ccc(-c2ccccc2)cc1)c1ccccc1 (stereo partly drawn) [Jun9-89-3, N-([1,1′-biphenyl]-4-yl)-2-bromo-2,2-dichloro-N-(2-oxo-2-(((S)-1-phenylethyl)amino)-1-(pyridin-3-yl)ethyl)acetamide] has an IC50 (SARS-CoV-2 M^pro; [7]) of 1.2 µM and a CC50 at 5 days (in vitro [1]; CC50 in Vero E6 cells) of 32.4 µM.

In the case of C[C@H](NC(=O)[C@H](c1cccnc1)N(C(=O)C(Cl)(Br)Br)c1ccc(-c2ccccc2)cc1)c1ccccc1 [Jun9-89-4S, N-([1,1′-biphenyl]-4-yl)-2,2-dibromo-2-chloro-N-((S)-2-oxo-2-(((S)-1-phenylethyl)amino)-1-(pyridin-3-yl)ethyl)acetamide], the IC50 (SARS-CoV-2 M^pro; [7]) is reported as 9.04 µM.

Work on C[C@H](NC(=O)[C@H](c1cccnc1)N(C(=O)C(Cl)Cl)c1ccc(-c2ccccc2)cc1)c1ccc(Br)cc1 [Jun9-90-3S, N-([1,1′-biphenyl]-4-yl)-N-((S)-2-(((S)-1-(4-bromophenyl)ethyl)amino)-2-oxo-1-(pyridin-3-yl)ethyl)-2,2-dichloroacetamide] yielded an IC50 (SARS-CoV-2 M^pro; IC50 against SARS-CoV-2 M^pro) of over 20 µM.

Work on C[C@@H](CCc1ccccc1)NC(=O)[C@H](c1cccnc1)N(C(=O)C(Cl)Cl)c1ccc(-c2ccccc2)cc1 [Jun9-90-4S, N-([1,1′-biphenyl]-4-yl)-2,2-dichloro-N-((S)-2-oxo-2-(((S)-4-phenylbutan-2-yl)amino)-1-(pyridin-3-yl)ethyl)acetamide] yielded an IC50 (SARS-CoV-2 M^pro; IC50 against SARS-CoV-2 M^pro) of over 20 µM.

For C=C(Cl)C(=O)N(c1ccc(-c2ccccc2)cc1)C(C(=O)N[C@@H](C)c1ccccc1)c1cccnc1 (stereo partly drawn) [Jun10-38-2, N-{[1,1′-biphenyl]-4-yl}-2-chloro-N-({[(1S)-1-phenylethyl]carbamoyl}(pyridin-3-yl)methyl)prop-2-enamide], the IC50 (SARS-CoV-2 M^pro; [7]) was 4.22 µM.
